Measured values from patent US8383641B2, “Aryloxyethylamine compounds suitable for treating disorders that respond to modulation of the dopamine D3 receptor” (Abbott GmbH & Co. KG, priority 2006, dated 2013).
Counter-ions that a name gives are not always drawn.

What was measured:
[1] = biological target: T1, human dopamine D3 receptors (Homo sapiens, UniProt P35462); test: Dopamine D3 receptor binding, [125I]-iodosulpride displacement; conditions: membranes of HEK-293 cells expressing human D3 receptor; 0.1 nM [125I]-iodosulpride
T1 construct: expressed in transfected cells; host or cells: HEK-293
T1 sequence (P35462 whole entry): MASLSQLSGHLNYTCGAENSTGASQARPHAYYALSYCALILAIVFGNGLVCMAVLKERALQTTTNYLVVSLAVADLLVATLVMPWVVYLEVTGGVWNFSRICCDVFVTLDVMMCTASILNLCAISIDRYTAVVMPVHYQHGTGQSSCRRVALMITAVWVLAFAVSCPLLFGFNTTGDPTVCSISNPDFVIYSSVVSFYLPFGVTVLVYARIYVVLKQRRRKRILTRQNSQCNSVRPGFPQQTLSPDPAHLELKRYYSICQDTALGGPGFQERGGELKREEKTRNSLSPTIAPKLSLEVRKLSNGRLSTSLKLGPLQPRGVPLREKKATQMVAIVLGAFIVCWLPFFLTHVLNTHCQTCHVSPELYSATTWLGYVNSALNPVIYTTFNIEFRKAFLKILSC
Experimental: (§1) The substance to be tested was either dissolved in methanol/Chremophor® (BASF-AG) or in dimethyl sulfoxide and then diluted with water to the desired concentration.
(§2) Each assay mixture was run in triplicate.
The incubation buffer contained 50 mM tris, 120 mM NaCl, 5 mM KCl, 2 mM CaCl2, 2 mM MgCl2 and 0.1% bovine serum albumin, 10 μM quinolone and 0.1% ascorbic acid (prepared fresh daily). The buffer was adjusted to pH 7.4 with HCl.
(§3) After having been incubated at 25° C. for 60 minutes, the assay mixtures were filtered through a Whatman GF/B glass fiber filter under vacuum using a cell collecting device. The filters were transferred to scintillation viols using a filter transfer system. After 4 ml of Ultima Gold® (Packard) have been added, the samples were shaken for one hour and the radioactivity was then counted in a Beta-Counter (Packard, Tricarb 2000 or 2200CA). The cpm values were converted into dpm using a standard quench series and the program belonging to the instrument.
(§4) The inhibition curves were analyzed by means of iterative nonlinear regression analysis using the Statistical Analysis System (SAS) which is similar to the “LIGAND” program described by Munson and Rodbard.

[2] = biological target: T2, human dopamine D2L receptors (long isoform) (Homo sapiens, UniProt P14416); test: Dopamine D2L receptor binding, [125I] iodospiperone displacement; conditions: selectivity ratio of receptor binding constants, D2L versus D3
T2 construct: expressed in transfected cells; host or cells: HEK-293
T2 sequence (P14416 whole entry, canonical isoform): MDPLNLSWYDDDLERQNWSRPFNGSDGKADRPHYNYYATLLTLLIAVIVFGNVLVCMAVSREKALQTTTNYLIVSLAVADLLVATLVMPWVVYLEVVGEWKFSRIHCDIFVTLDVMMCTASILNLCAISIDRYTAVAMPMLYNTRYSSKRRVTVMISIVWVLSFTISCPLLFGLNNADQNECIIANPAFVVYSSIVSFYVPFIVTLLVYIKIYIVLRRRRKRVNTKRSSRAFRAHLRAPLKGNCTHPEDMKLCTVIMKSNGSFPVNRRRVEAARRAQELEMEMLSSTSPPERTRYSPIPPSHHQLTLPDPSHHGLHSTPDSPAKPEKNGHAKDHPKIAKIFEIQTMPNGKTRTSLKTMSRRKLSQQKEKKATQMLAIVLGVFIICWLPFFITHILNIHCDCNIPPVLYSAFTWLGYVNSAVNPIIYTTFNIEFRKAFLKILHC
Experimental: as §1, §2
The incubation buffer contained 50 mM tris, 120 mM NaCl, 5 mM KCl, 2 mM CaCl2, 2 mM MgCl2 and 0.1% bovine serum albumin. The buffer was adjusted to pH 7.4 with HCl.
as §3, §4

Row | Ki [1] [nM] | Ki(D2)*/Ki(D3)* [2] | Compound
1 | < 1 | ++ (between 50 and 100) | CCCNCCOc1ccc(NS(=O)(=O)c2ccc(CCCF)cc2)c(OC)n1 [Example 1, 4-(3-Fluoro-propyl)-N-[2-methoxy-6-(2-propylamino-ethoxy)-pyridin-3-yl]-benzenesulfonamide×HCl]
2 | 1 to 10 | ++ (between 50 and 100) | CCCNCCOc1ccc(NS(=O)(=O)c2ccc(C(C)C(F)(F)F)cc2)c(OC)n1 (stereo not drawn) [Example 3, N-[2-Methoxy-6-(2-propylamino-ethoxy)-pyridin-3-yl]-4-(2,2,2-trifluoro-1-methylethyl)-benzenesulfonamide×HCl]
3 | < 1 | ++ (between 50 and 100) | CCCNCCOc1ccc(NS(=O)(=O)c2ccc(C(C)C)cc2)c(OC)n1 [Example 4, 4-Isopropyl-N-[2-methoxy-6-(2-propylamino-ethoxy)-pyridin-3-yl]-benzenesulfonamide×HCl]
4 | 1 to 10 | ++ (between 50 and 100) | CCCNCCOc1ccc(NS(=O)(=O)c2ccc(OC(F)F)cc2)c(OC)n1 [Example 5, 4-Difluoromethoxy-N-[2-methoxy-6-(2-propylamino-ethoxy)-pyridin-3-yl]-benzenesulfonamide×HCl]
5 | 1 to 10 | ++ (between 50 and 100) | CCCNCCOc1ccc(NS(=O)(=O)c2ccc(CCF)cc2)c(OC)n1 [Example 6, 4-(2-Fluoro-ethyl)-N-[2-methoxy-6-(2-propylamino-ethoxy)-pyridin-3-yl]-benzenesulfonamide×HCl]
6 | < 1 | ++++ (>150) | CCCNCCOc1ccc(NS(=O)(=O)c2ccc(-c3cnco3)cc2)c(OC)n1 [Example 7, N-[2-Methoxy-6-(2-propylamino-ethoxy)-pyridin-3-yl]-4-oxazol-5-yl-benzenesulfonamide×HCl]
7 | 1 to 10 | ++++ (>150) | CCCNCCOc1ccc(NS(=O)(=O)c2ccc(OCCF)cc2)c(OC)n1 [Example 8, 4-(2-Fluoro-ethoxy)-N-[2-methoxy-6-(2-propylamino-ethoxy)-pyridin-3-yl]-benzenesulfonamide×HCl]
8 | 1 to 10 | ++++ (>150) | CCCNCCOc1ccc(NS(=O)(=O)c2ccc(OCC(F)F)cc2)c(OC)n1 [Example 9, 4-(2,2-Difluoro-ethoxy)-N-[2-methoxy-6-(2-propylamino-ethoxy)-pyridin-3-yl]-benzenesulfonamid×HCl]
9 | 1 to 10 | ++++ (>150) | CCCNCCOc1ccc(NS(=O)(=O)c2ccc(OCC(F)(F)F)cc2)c(OC)n1 [Example 10, N-[2-Methoxy-6-(2-propylamino-ethoxy)-pyridin-3-yl]-4-(2,2,2-trifluoro-ethoxy)-benzenesulfonamide×HCl]
10 | < 1 | ++++ (>150) | CCCNCCOc1ccc(NS(=O)(=O)c2ccc([C@@H](C)CF)cc2)c(OC)n1 [Example 11, 4-((R)-2-Fluoro-1-methyl-ethyl)-N-[2-methoxy-6-(2-propylamino-ethoxy)-pyridin-3-yl]-benzenesulfonamide×HCl]
11 | 50 to 150 | + (between 10 and 50) | COc1nc(OC2CCNC2)ccc1NS(=O)(=O)c1ccc(C(C)C)cc1 (stereo not drawn) [Example 13, 4-Isopropyl-N-[2-methoxy-6-(pyrrolidin-3-yloxy)-pyridin-3-yl]-benzenesulfonamide×HCl]
12 | 10 to 50 | + (between 10 and 50) | COc1nc(OCCN2CCCC2)ccc1NS(=O)(=O)c1ccc(CCCF)cc1 [Example 15, 4-(3-Fluoro-propyl)-N-[2-methoxy-6-(2-pyrrolidin-1-yl-ethoxy)-pyridin-3-yl]-benzenesulfonamide]
13 | 1 to 10 | + (between 10 and 50) | COc1nc(OCCN2CCCC2)ccc1NS(=O)(=O)c1ccc(C(C)C)cc1 [Example 16, 4-Isopropyl-N-[2-methoxy-6-(2-pyrrolidin-1-yl-ethoxy)-pyridin-3-yl]-benzenesulfonamide×HCl]
14 | 1 to 10 | ++ (between 50 and 100) | COc1nc(OCCN2CCCC2)ccc1NS(=O)(=O)c1ccc([C@@H](C)CF)cc1 [Example 17, 4-((R)-2-Fluoro-1-methyl-ethyl)-N-[2-methoxy-6-(2-pyrrolidin-1-yl-ethoxy)-pyridin-3-yl]-benzenesulfonamide]
15 | 1 to 10 | + (between 10 and 50) | COc1nc(OCCN2CCCC2)ccc1NS(=O)(=O)c1ccc(C(C)C(F)(F)F)cc1 (stereo not drawn) [Example 18, N-[2-Methoxy-6-(2-pyrrolidin-1-yl-ethoxy)-pyridin-3-yl]-4-(2,2,2-trifluoro-1-methyl-ethyl)-benzenesulfonamide]
16 | 10 to 50 | + (between 10 and 50) | COc1nc(OCCN2CCCC2)ccc1NS(=O)(=O)c1ccc(-c2cnco2)cc1 [Example 19, N-[2-Methoxy-6-(2-pyrrolidin-1-yl-ethoxy)-pyridin-3-yl]-4-oxazol-5-yl-benzenesulfonamide]
17 | 1 to 10 | + (between 10 and 50) | CCCNCCOc1ncc(NS(=O)(=O)c2ccc(C(C)C)cc2)c(OC)n1 [Example 20, 4-isopropyl-N-[4-methoxy-2-(2-propylamino-ethoxy)-pyrimidin-5-yl]-benzenesulfonamide]
18 | 50 to 150 | ++ (between 50 and 100) | CCCNCCOc1ncc(NS(=O)(=O)c2ccc(OC(F)(F)F)cc2)c(OC)n1 [Example 21, N-[4-Methoxy-2-(2-propylamino-ethoxy)-pyrimidin-5-yl]-4-trifluoromethoxy-benzenesulfonamide]
19 | 50 to 150 |  | CC(C)c1ccc(S(=O)(=O)Nc2ccc(OCCN(C)C)nc2)cc1 [Example 22, N-[6-(2-Dimethylamino-ethoxy)-pyridin-3-yl]-4-isopropyl-benzenesulfonamide×HCl]
20 | 10 to 50 | + (between 10 and 50) | CCCNCCOc1ccc(NS(=O)(=O)c2ccc(C(C)C)cc2)cn1 [Example 23, 4-Isopropyl-N-[6-(2-propylamino-ethoxy)-pyridin-3-yl]-benzenesulfonamide×HCl]
21 | 10 to 50 | ++ (between 50 and 100) | CCCN(CCC)CCOc1ccc(NS(=O)(=O)c2ccc(C(C)C)cc2)cn1 [Example 24, N-[6-(2-Dipropylamino-ethoxy)-pyridin-3-yl]-4-isopropyl-benzenesulfonamide×HCl]
22 | 1 to 10 | +++ (between 100 and 150) | COc1nc(OC[C@H]2CCCN2)ccc1NS(=O)(=O)c1ccc(-c2cnco2)cc1 [Example 27, N-[2-Methoxy-6-((R)-1-pyrrolidin-2-ylmethoxy)-pyridin-3-yl]-4-oxazol-5-yl-benzenesulfonamide×HCl]
23 | < 1 | ++++ (>150) | CCCNCCOc1ccc(NS(=O)(=O)c2ccc(C(C)C)cc2)c(C)n1 [Example 29, 4-Isopropyl-N-[2-methyl-6-(2-propylamino-ethoxy)-pyridin-3-yl]-benzenesulfonamide×HCl]
24 | 1 to 10 | ++++ (>150) | CCCNCCOc1ccc(NS(=O)(=O)c2ccc([C@@H](C)CF)cc2)c(C)n1 [Example 34, 4-((R)-2-Fluoro-1-methyl-ethyl)-N-[2-methyl-6-(2-propylamino-ethoxy)-pyridin-3-yl]-benzenesulfonamide×HCl]
25 | 10 to 50 | ++++ (>150) | CCCNCCOc1ccc(NS(=O)(=O)c2ccc(-c3cnco3)cc2)c(C)n1 [Example 36, N-[2-Methyl-6-(2-propylamino-ethoxy)-pyridin-3-yl]-4-oxazol-5-yl-benzenesulfonamide×HCl]
26 | 1 to 10 | +++ (between 100 and 150) | Cc1nc(OC[C@@H]2CCCN2)ccc1NS(=O)(=O)c1ccc(C(C)C)cc1 [Example 43, 4-Isopropyl-N-[2-methyl-6-((S)-1-pyrrolidin-2-ylmethoxy)-pyridin-3-yl]-benzenesulfonamide×HCl]
27 | 10 to 50 | ++ (between 50 and 100) | CCCNCCOc1cc(C)c(NS(=O)(=O)c2ccc([C@@H](C)CF)cc2)cn1 [Example 57, 4-((R)-2-Fluoro-1-methyl-ethyl)-N-[4-methyl-6-(2-propylamino-ethoxy)-pyridin-3-yl]-benzenesulfonamide×HCl]

Row | Compound | Ki [1] [nM] | Ki(D2)*/Ki(D3)* [2]
28 | CCCNCCOc1ccc(NS(=O)(=O)c2ccc(OC(F)(F)F)cc2)c(OC)n1.Cl [Example 2, N-[2-Methoxy-6-(2-propylamino-ethoxy)-pyridin-3-yl]-4-trifluoromethoxy-benzenesulfonamide×HCl] | 1 to 10 | + (between 10 and 50)
29 | CCCN1CCC(Oc2ccc(NS(=O)(=O)c3ccc(C(C)C)cc3)c(C)n2)C1.O=C(O)/C=C/C(=O)O (stereo not drawn) [Example 61, 4-Isopropyl-N-{2-methyl-6-[(1-propylpyrrolidin-3-yl)oxy]pyridin-3-yl}benzenesulfonamide (2E)-but-2-enedioate] | 1 to 10 | + (between 10 and 50)
